Experiments:
aldose reductase [1] = target: T1, aldose reductase (Bos taurus, UniProt P16116); experiment: In vitro inhibition of partially purified aldose reductase from bovine lenses, spectrophotometric; type: biochemical
T1 construct: partially purified aldose reductase is isolated in known manner from bovine lenses; from tissue; host or cells: bovine lens
Text: Thus, in a standard procedure partially purified aldose reductase is isolated in known manner from bovine lenses. The percentage inhibition of this enzyme's ability in vitro to catalyse the reduction of aldoses to polyhydric alcohols, and particularly to reduce glucose to sorbitol, caused by a test compound can then be determined using standard spectrophotometric methods.

aldose reductase [2] = experiment: Reduction of sciatic nerve sorbitol in streptozotocin-diabetic rats (inhibition of aldose reductase in vivo); set-up: species or system rat; details: after 5 daily oral doses of 3 mg/kg
Method: Rats are made diabetic (as evidenced by severe glucosuria being present) by dosing with streptozotocin. The animals are then dosed daily with the test compound for one, two or five days. The animals are then sacrificed 2-6 hours after the final dose and the eye lenses and/or sciatic nerves are removed. After a standard work-up procedure the residual sorbitol levels in each tissue are determined by gas liquid chromatography after conversion to the polytrimethylsilyl derivatives. Inhibition of aldose reductase in vivo can then be assessed by comparing the residual sorbitol levels in tissues from the dosed diabetic group of rats with those of an undosed group of diabetic rats and an undosed, normal group of rats.
In a variation of the above test diabetic rats are dosed at a fixed daily oral dose for five days and then sacrificed 6 hours aftre the final dose and the reduction of sciatic nerve sorbitol assessed relative to that in control animals.

Structure (SMILES): Cc1cc(NC(=O)C(=O)N(C(C)C)C(C)C)cc(C)c1S(=O)(=O)C[N+](=O)[O-] [Example 2, N,N-di-isopropyl-N'-[3,5-dimethyl-4-(nitromethylsulfonyl)phenyl]oxamide]
- IC50 (aldose reductase [1]): ~60 nM
- reduction in sciatic nerve sorbitol levels (aldose reductase [2]): 82%

Reference: patent US5110808A, “Amide derivatives, compositions and use” (Imperial Chemical Industries, PLC, priority 1990, dated 1992)
